Test results from patent US20220298141A1, “ENZYME INHIBITORS” (KALVISTA PHARMACEUTICALS LIMITED, priority 2019, published 2022).

Target: T1, Human Factor XIIa (Homo sapiens, UniProt P00748)
T1 construct: purchased Enzyme Research Laboratories
T1 sequence (P00748 373-615 limits assumed): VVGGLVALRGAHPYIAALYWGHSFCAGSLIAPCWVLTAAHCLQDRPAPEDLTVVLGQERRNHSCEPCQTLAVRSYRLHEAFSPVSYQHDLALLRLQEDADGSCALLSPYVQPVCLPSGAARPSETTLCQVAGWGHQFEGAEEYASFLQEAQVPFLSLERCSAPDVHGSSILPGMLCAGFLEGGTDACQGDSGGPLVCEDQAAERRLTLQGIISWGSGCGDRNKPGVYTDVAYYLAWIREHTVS
T1 sequence (P00748 20-372 partner limits assumed): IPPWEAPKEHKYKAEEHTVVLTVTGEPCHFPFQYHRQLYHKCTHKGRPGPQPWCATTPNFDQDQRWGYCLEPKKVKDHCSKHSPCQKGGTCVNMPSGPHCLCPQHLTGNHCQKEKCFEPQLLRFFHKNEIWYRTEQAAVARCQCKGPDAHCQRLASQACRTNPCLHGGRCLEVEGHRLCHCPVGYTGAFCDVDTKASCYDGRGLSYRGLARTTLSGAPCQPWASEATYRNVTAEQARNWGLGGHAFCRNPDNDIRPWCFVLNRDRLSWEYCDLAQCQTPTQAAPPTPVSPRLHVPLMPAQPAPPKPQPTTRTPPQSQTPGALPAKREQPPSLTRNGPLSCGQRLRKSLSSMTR
Experiment: Determination of Factor XIIa inhibitory activity in vitro (fluorogenic substrate H-DPro-Phe-Arg-AFC)
Type: biochemical
Details: Human Factor XIIa (Enzyme Research Laboratories), 25° C., read-out: Human FXIIa IC50
Procedure: Determination of the % Inhibition for FXIIa
Factor XIIa inhibitory activity in vitro was determined using standard published methods (see e.g. Shori et al., Biochem. Pharmacol., 1992, 43, 1209; Baeriswyl et al., ACS Chem. Biol., 2015, 10 (8) 1861; Bouckaert et al., European Journal of Medicinal Chemistry 110 (2016) 181). Human Factor XIIa (Enzyme Research Laboratories) was incubated at 25° C. with the fluorogenic substrate H-DPro-Phe-Arg-AFC and various concentrations of the test compound. Residual enzyme activity (initial rate of reaction) was determined by measuring the […] and the IC50 value for the test compound was determined.

Work on `Nc1nccc2cc(CNC(=O)c3cc(Cl)cnc3NC3CCCC3)ccc12` [Example 1.01] yielded an IC50 of 10 to 40 µM.

`Nc1nccc2cc(CNC(=O)c3cc(Cl)cnc3NCc3ccccc3)ccc12` [Example 1.02] gave an IC50 of 10 to 40 µM.

In the case of `Nc1nccc2cc(CNC(=O)c3cc(Cl)cnc3NCC3CCOCC3)ccc12` [Example 1.03], the IC50 is reported as 10 to 40 µM.

`Nc1nccc2cc(CNC(=O)c3cc(Cl)cnc3Nc3ccccc3)ccc12` [Example 1.04] showed an IC50 of 10 to 40 µM.

`COc1ccc(CNc2ncc(Cl)cc2C(=O)NCc2ccc3c(N)nccc3c2)cc1` [Example 1.05] showed an IC50 of 10 to 40 µM.

`CS(=O)(=O)c1cccc(CNc2ncc(Cl)cc2C(=O)NCc2ccc3c(N)nccc3c2)c1` [Example 1.06] showed an IC50 of 3 to 10 µM.

For `CN(C)c1cccc(CNc2ncc(Cl)cc2C(=O)NCc2ccc3c(N)nccc3c2)c1` [Example 1.07], the IC50 was 10 to 40 µM.

In the case of `COCCNc1ncc(Cl)cc1C(=O)NCc1ccc2c(N)nccc2c1` [Example 1.08], the IC50 is reported as 3 to 10 µM.

`CN(C)CCNc1ncc(Cl)cc1C(=O)NCc1ccc2c(N)nccc2c1` [Example 1.09] showed an IC50 of 1 to 3 µM.

With `Nc1nccc2cc(CNC(=O)c3cc(Cl)cnc3NCCN3CCCCC3)ccc12` [Example 1.10] the IC50 was 1 to 3 µM.

Work on `Nc1nccc2cc(CNC(=O)c3cc(Cl)cnc3NCCN3CCOCC3)ccc12` [Example 1.11] yielded an IC50 of 3 to 10 µM.

`CN1CCN(CCNc2ncc(Cl)cc2C(=O)NCc2ccc3c(N)nccc3c2)CC1` [Example 1.12] was tested, and the IC50 was 1 to 3 µM.

`CN1CCC(CNc2ncc(Cl)cc2C(=O)NCc2ccc3c(N)nccc3c2)CC1` [Example 1.13, N-[(1-Amino-6-isoquinolyl)methyl]-5-chloro-2-[(1-methyl-4-piperidyl)methylamino]pyridine-3-carboxamide] gave an IC50 of 0.3 to 1 µM.

In the case of `Nc1nccc2cc(CNC(=O)c3cc(Cl)cnc3NCCOc3ccccc3)ccc12` [Example 1.14], the IC50 is reported as 3 to 10 µM.

`Nc1nccc2cc(CNC(=O)c3cc(Cl)cnc3NCCCOc3ccccc3)ccc12` [Example 1.15] gave an IC50 of 10 to 40 µM.

Work on `Nc1nccc2cc(CNC(=O)c3cc(Cl)cnc3NCCn3ccnc3)ccc12` [Example 1.16] yielded an IC50 of 3 to 10 µM.

`Nc1nccc2cc(CNC(=O)c3cc(Cl)cnc3NCCN3CCS(=O)(=O)CC3)ccc12` [Example 1.17] showed an IC50 of 3 to 10 µM.

`CC(C)CCNc1ncc(Cl)cc1C(=O)NCc1ccc2c(N)nccc2c1` [Example 1.18] gave an IC50 of 10 to 40 µM.

In the case of `CC(=O)NCCNc1ncc(Cl)cc1C(=O)NCc1ccc2c(N)nccc2c1` [Example 1.19], the IC50 is reported as 3 to 10 µM.

`CC(=O)NCCCNc1ncc(Cl)cc1C(=O)NCc1ccc2c(N)nccc2c1` [Example 1.20] was tested, and the IC50 was 3 to 10 µM.

`Nc1nccc2cc(CNC(=O)c3cc(Cl)cnc3NCc3ccc4c(c3)OCO4)ccc12` [Example 1.21] was tested, and the IC50 was 10 to 40 µM.

Work on `CN1CCCc2cc(CNc3ncc(Cl)cc3C(=O)NCc3ccc4c(N)nccc4c3)ccc21` [Example 1.22] yielded an IC50 of 3 to 10 µM.

`Nc1nccc2cc(CNC(=O)c3cc(Cl)cnc3NCc3ccncc3)ccc12` [Example 1.23] showed an IC50 of 3 to 10 µM.

Work on `Nc1nccc2cc(CNC(=O)c3cc(Cl)cnc3NCc3cccnc3)ccc12` [Example 1.24] yielded an IC50 of 3 to 10 µM.

For `CC(C)N(CCNc1ncc(Cl)cc1C(=O)NCc1ccc2c(N)nccc2c1)C(C)C` [Example 1.25], the IC50 was 0.3 to 1 µM.

For `CC(C)N1CCN(CCCNc2ncc(Cl)cc2C(=O)NCc2ccc3c(N)nccc3c2)CC1` [Example 1.26], the IC50 was 1 to 3 µM.

Molecule `Nc1nccc2cc(CNC(=O)c3cc(Cl)cnc3NCc3cccc(N4CCCCC4)c3)ccc12` [Example 1.27] has an IC50 of 10 to 40 µM.

Work on `Nc1nccc2cc(CNC(=O)c3cc(Cl)cnc3NCC3CCN(c4ccncc4)CC3)ccc12` [Example 1.28] yielded an IC50 of 0.3 to 1 µM.

Work on `Nc1nccc2cc(CNC(=O)c3cc(Cl)cnc3NCCN3CCCC3=O)ccc12` [Example 1.29] yielded an IC50 of 3 to 10 µM.

With `CN1CCN(c2ccccc2CNc2ncc(Cl)cc2C(=O)NCc2ccc3c(N)nccc3c2)CC1` [Example 1.30] the IC50 was 3 to 10 µM.

For `Nc1nccc2cc(CNC(=O)c3cc(Cl)cnc3NCC3CCN(Cc4ccccc4)CC3)ccc12` [Example 1.31], the IC50 was 1 to 3 µM.

In the case of `Nc1nccc2cc(CNC(=O)c3cc(Cl)cnc3NCc3ccc(N4CCCCC4=O)cc3)ccc12` [Example 1.32], the IC50 is reported as 10 to 40 µM.

For `Nc1nccc2cc(CNC(=O)c3cc(Cl)cnc3NCc3cccc(N4CCCC4=O)c3)ccc12` [Example 1.33], the IC50 was 10 to 40 µM.

`Nc1nccc2cc(CNC(=O)c3cc(Cl)cnc3NCc3ccc(CN4CCCC4=O)cc3)ccc12` [Example 1.34] showed an IC50 of 10 to 40 µM.

Molecule `CN1CCC(N(C)c2ncc(Cl)cc2C(=O)NCc2ccc3c(N)nccc3c2)CC1` [Example 1.35] has an IC50 of 10 to 40 µM.

For `CN1CCN(CCCNc2ncc(Cl)cc2C(=O)NCc2ccc3c(N)nccc3c2)CC1` [Example 1.36], the IC50 was 1 to 3 µM.

With `COc1ccc(Nc2ncc(Cl)cc2C(=O)NCc2ccc3c(N)nccc3c2)cc1` [Example 1.37] the IC50 was 10 to 40 µM.

Work on `COc1ccccc1Nc1ncc(Cl)cc1C(=O)NCc1ccc2c(N)nccc2c1` [Example 1.38] yielded an IC50 of 10 to 40 µM.

`CN(C)c1ccc(Nc2ncc(Cl)cc2C(=O)NCc2ccc3c(N)nccc3c2)cc1` [Example 1.39] was tested, and the IC50 was 10 to 40 µM.

Molecule `CN(C)c1cccc(Nc2ncc(Cl)cc2C(=O)NCc2ccc3c(N)nccc3c2)c1` [Example 1.40] has an IC50 of 10 to 40 µM.

`CN(C)c1ccccc1Nc1ncc(Cl)cc1C(=O)NCc1ccc2c(N)nccc2c1` [Example 1.41] showed an IC50 of 10 to 40 µM.

Molecule `CS(=O)(=O)Nc1cccc(Nc2ncc(Cl)cc2C(=O)NCc2ccc3c(N)nccc3c2)c1` [Example 1.42] has an IC50 of 10 to 40 µM.

For `CN1CCC(CNc2cccc(C(=O)NCc3ccc4c(N)nccc4c3)n2)CC1` [Example 4.26], the IC50 was 1 to 3 µM.

`CN1CCCN(c2ncc(C(=O)NCc3ccc4c(N)nccc4c3)cc2Cl)CC1` [Example 8.01] showed an IC50 of 10 to 40 µM.

`COc1ccc(CN(C)c2ncc(C(=O)NCc3ccc4c(N)nccc4c3)cc2Cl)cc1` [Example 8.02] gave an IC50 of 10 to 40 µM.

Work on `CC(C)N1CCN(c2ncc(C(=O)NCc3ccc4c(N)nccc4c3)cc2Cl)CC1` [Example 8.03] yielded an IC50 of 10 to 40 µM.

With `Nc1nccc2cc(CNC(=O)c3cnc(N4CC(O)C4)c(Cl)c3)ccc12` [Example 8.04] the IC50 was 10 to 40 µM.

For `CN(C)CCCOc1cccc(CN(C)c2ncc(C(=O)NCc3ccc4c(N)nccc4c3)cc2Cl)c1` [Example 8.05], the IC50 was 10 to 40 µM.

In the case of `CN1CCC(N(C)c2ncc(C(=O)NCc3ccc4c(N)nccc4c3)cc2Cl)CC1` [Example 8.06, N-((1-aminoisoquinolin-6-yl)methyl)-5-chloro-6-(methyl(1-methylpiperidin-4-yl)amino)nicotinamide], the IC50 is reported as 1 to 3 µM.

`CN(c1ncc(C(=O)NCc2ccc3c(N)nccc3c2)cc1Cl)C1CCOCC1` [Example 8.07] was tested, and the IC50 was 3 to 10 µM.

For `Nc1nccc2cc(CNC(=O)c3cnc(NC4CCCC4)c(Cl)c3)ccc12` [Example 11.01, N-((1-aminoisoquinolin-6-yl)methyl)-5-chloro-6-(cyclopentylamino)nicotinamide], the IC50 was 10 to 40 µM.

With `CN(C)c1ccc(CNc2ncc(C(=O)NCc3ccc4c(N)nccc4c3)cc2Cl)cc1` [Example 11.02] the IC50 was 3 to 10 µM.

`Nc1nccc2cc(CNC(=O)c3cnc(NCC4CCOCC4)c(Cl)c3)ccc12` [Example 11.03] was tested, and the IC50 was 3 to 10 µM.

For `Nc1nccc2cc(CNC(=O)c3cnc(Nc4ccccc4)c(Cl)c3)ccc12` [Example 11.04], the IC50 was 10 to 40 µM.

With `CN(C)CCCNc1ncc(Cl)cc1C(=O)NCc1ccc2c(N)nccc2c1` [Example 11.05] the IC50 was 1 to 3 µM.

In the case of `CN(C)CCOc1ccc(CNc2ncc(Cl)cc2C(=O)NCc2ccc3c(N)nccc3c2)cc1` [Example 11.06], the IC50 is reported as 3 to 10 µM.
